Values quoted from earlier work in patent publication US20230416692A1 (BOARD OF REGENTS, THE UNIVERSITY OF TEXAS SYSTEM, priority 2020, published 2023).

Tested on: COVID-19
Settings: human, in vivo; cited from earlier work

| SMILES | fatality rate among hospitalized patients (in words) |
| --- | --- |
| CCN(CCO)CCCC(C)Nc1ccnc2cc(Cl)ccc12 (centres unmarked) [hydroxychloroquine] | not associated with significant differences in fatality rate |
| CC[C@H]1OC(=O)[C@H](C)[C@@H](O[C@H]2C[C@@](C)(OC)[C@@H](O)[C@H](C)O2)[C@H](C)[C@@H](O[C@@H]2O[C@H](C)C[C@H](N(C)C)[C@H]2O)[C@](C)(O)C[C@@H](C)CN(C)[C@H](C)[C@@H](O)[C@]1(C)O [azithromycin] | not associated with significant differences in fatality rate |
